Assay [1] deals with Skin explants from gestational day 17 rats. The assay can be described thus: Light and electron microscopy of fetal rat skin explants (epidermal maturation). It counts as cell-based. As to the method:
Samples for light microscopy were fixed in modified Karnovsky's solution, plastic-embedded, and 0.5 μm sections were stained with toluidine. Samples for electron microscopy were minced into 1 mm^3 pieces, fixed in modified Karnovsky's fixative, and processed. Sections were stained with uranyl acetate and lead citrate, post-fixed in ruthenium tetroxide, and examined using a Zeiss 10A electron microscope.
Explants incubated in various media woe examined by light microscopy. The incubation di included control medium (containing no activators) and various media individually containing 300 μM clofibrate, 100 μM juvenile hormone III, 300 μM oleic acid, 30 μM linoleic acid, 50 μM farnesol, and various concentrations of 9-cis-retinoic acid, all-trans-retinoic acid, and 1,25-dihydroxy vitamin D3.
Observations were then made of the ultrastructural maturation of the outer epidermis in explants that had been incubated in the various media and then post-fixed in ruthenium tetroxide. Media identical to those of the preceding paragraph were used, excluding the retinoic acid-containing and 1,25-dihydroxy vitamin D3-containing media.

A further assay relates to fetal rodent skin. The following applies: earlier studies (Hanley et al. 1996); cited from earlier work.
Assay [2] concerns full-thickness flank skin from the fetal rats. As to the kind of experiment: Transepidermal water loss (TEWL) of fetal rat skin explants in organ culture (barrier function). It counts as cell-based, Sprague-Dawley rats. Here is the method: Timed pregnant Sprague-Dawley rats (plug date=day 0) were obtained from Simonsen (Gilroy, Calif., USA) and fetuses were delivered prematurely on day 17. Transepidermal water loss (TEWL) was measured in excised full-thickness flank skin from the fetal rats after various times in culture. The skin explants were placed dermis-side down onto collagen membrane inserts (3μ pore size) in medium M-199 (serum-free), and submerged, and the lateral edges and dermal surface were sealed with petrolatum, such that water loss occurred only through the epidermal surface. Explant samples were weighed hourly, at ambient temperature (24±3° C.) and humidity (40±5%), over 6 hours using a Cahn balance (sensitivity 0.001 mg). TEWL levels are reported as milligrams of water lost per square millimeter of epidermal surface per hour. Fatty acids and clofibrate (p-chlorophenoxyisobutyric acid) were added to the medium bound to 0.5% (weight/volume) bovine serum albumin (BSA). Isoprenoids and oxysterols were added in ethanol (≦0.1%) and juvenile hormone III was added as a dimethylsulfoxide (DMSO) solution (≦0.1%). Control explants were incubated in the presence of the appropriate vehicle (≦0.1% DMSO or ethanol, and/or ≦0.5% BSA). Skin explants from gestational day 17 rats were incubated in the presence of either various activators or vehicle, and transepidermal water loss was measured after two days. The activators and the concentrations at which they were used were as follows: […]

A further assay has as its system β-Glucocerebrosidase. As to the kind of experiment: β-Glucocerebrosidase activity in epidermis of treated fetal rat skin explants. It counts as cell-based, rats. Conditions: clofibrate (300 μM), juvenile hormone III (100 μ), mean of five ± SEM. As to the method: (§1) Epidermis was separated from dermis after incubation in 10 mM ethylenediamine tetraacetic acid (EDTA) in Ca^++- and Mg^++-free phosphate-buffered saline (PBS), pH 7.4, at 37° C. for 30-40 minutes. The tissues were then minced, and homogenized on ice (three times at 15 seconds each with a Polytron homogenizer, followed by sonication twice at ten seconds each at 35% power) in either PBS containing 0.1 mM phenylmethylsulfonyl fluoride (PMSF) and 0.1% Triton X-100 (for β-glucocerebrosidase) or in 10 mM Tris (PH 7.5) containing 0.15 M sucrose and 2 mM EDTA (for steroid sulfatase). β-Glucocerebrosidase activity was measured in the supernatant following centrifugation at 10,000×g for fifteen minutes at 4° C. Steroid sulfatase activity was measured in the microsomal fraction resulting from a […] centrifugation (10 minutes, 4° C.) followed by 60 minutes of 100,000×g ultracentrifugation at 4° C. Protein content was measured by conventional techniques.
β-Glucocerebrosidase) activity was assayed using the synthetic substrate 4-methylumbelliferyl β-D-glucoside (4-MUG). The assays were performed in 5 mM sodium taurocholate in citrate-phosphate buffer (pH 5.6) with 0.5 mM 4-MUG for sixty minutes at 37° C., with a final assay volume of 100 μL, and protein concentration of 1-2 mg/mL. The reaction was terminated with 2 mL of carbonate-bicarbonate buffer (pH 10.5). The fluorescence was then measured at […] (excitation) and 450 λ (emission) and compared with a standard 4-methylumbelliferone (4-MU) curve.
(§2) Skin explants from 17-day fetal rats were incubated for 24 or 48 hours in media individually containing clofibrate (300 μM) and juvenile hormone III […], and control media. Enzyme activity was measured and the results are presented in Table I as the mean values of five determinations±SEM (standard error of the mean). All p values are ≦0.005 compared with controls of the same time period.

In a further assay the test system is Steroid Sulfatase. As to the kind of experiment: Steroid sulfatase activity in epidermis of treated fetal rat skin explants. It counts as cell-based, rats. Conditions: clofibrate (300 μM), juvenile hormone III (100 μ), mean of five ± SEM. Here is the method:
as §1
Steroid sulfatase activity was measured by incubating 100 μg of microsomal protein in 0.1 M Tris containing 5.6 mM glucose (pH 7.4) with 15 μM, (^3H) dihydroepiandrosterone sulfate (DHEAS) (15 μCi) in a final volume of 1.1 mL The product, (^3H) DHEA, was extracted with benzene and an aliquot counted by scintillation spectrophotometry.
as §2

For assay [3], the system named is Normal human keratinocytes. The assay can be described thus: Cornified envelope formation (35S incorporation) in keratinocytes. The following applies: 15 μM, 0.03 mM calcium, 48-hour. The format is cell-based.

Turning to `C=C1/C(=C\C=C2/CCC[C@]3(C)[C@@H]([C@H](C)CCCC(C)(C)O)CC[C@@H]23)C[C@@H](O)C[C@@H]1O` [1,25-dihydroxyvitamin D3], in assay [1] (various concentrations), the “light microscopy of the epidermis” value is reported as “did not exhibit a distinct stratum corneum”. Also, in the assay with fetal rodent skin, the “acceleration of the appearance of a mature barrier in fetal rodent skin” value (shortened to “acceleration”) is “had no effect”.

Regarding `CC1=C(/C=C/C(C)=C/C=C/C(C)=C/C(=O)O)C(C)(C)CCC1` [all-trans-retinoic acid], in assay [1] (various concentrations), the “light microscopy of the epidermis” value was “did not exhibit a distinct stratum corneum”. In addition, the “acceleration” value in the assay on fetal rodent skin was “had no effect”.

Consider `COC(=O)C=C(C)CCC=C(C)CCC1OC1(C)C` (stereo not drawn) [juvenile hormone III, 7-methyl-9-(3,3-dimethyloxiranyl)-3-methyl-2,6-nonadienoic acid methyl ester], for which the “effect on TEWL / barrier formation” value in assay [2] (100 μM, two days) is given as “significantly accelerated barrier formation”. Besides, the EC50 in assay [2] (Rattus norvegicus, dose response, FIGS. 4a-4c, read-out: concentration of half-maximal effect on barrier development (TEWL)) is ~75 µM. Further, in assay [2] (dose response, FIGS. 4a-4c), the “concentration of maximal effect on barrier development (TEWL)” value is “approximately 250 μM”. For the same compound, the “light microscopy of the epidermis” value in assay [1] (100 μM, 48 hours) was “had both a multi-layered stratum granulosum and a stratum corneum”. Besides, the “β-Glucocerebrosidase Activity” value with β-Glucocerebrosidase (24-Hour Incubation) is 2.89 ± 0.20 nmol/min/mg; with β-Glucocerebrosidase (48-Hour Incubation), 5.20 ± 0.62 nmol/min/mg. In addition, the entries for the “Steroid Sulfatase Activity” value with Steroid Sulfatase (24-Hour Incubation) and in the assay with Steroid Sulfatase (48-Hour Incubation) were 12.55 ± 1.25 pmol/h/mg and 18.23 ± 2.35 pmol/h/mg, respectively. Further, the “rate of cornified envelope formation” value in assay [3] is given as “substantial increases in the rate of cornified envelope formation”.

Turning to `CC1=C(/C=C/C(C)=C\C=C\C(C)=C\C(=O)O)C(C)(C)CCC1` [9-cis-retinoic acid], the “light microscopy of the epidermis” value in assay [1] (various concentrations) was “did not exhibit a distinct stratum corneum”. Besides, the “acceleration” value with fetal rodent skin is “had no effect”.

Source of the values: patent publication USRE37770E1, “Treatment of skin conditions by use of PPARα activators” (The Regents of the University of California, priority 1997, dated 2002).
